pIC50: −log10 of the molar value.

The subject of one assay is A431 (Skin). Kind of assay: In vitro cytotoxicity, MTT assay, A431. It counts as cell-based. As to conditions: Homo sapiens, A-431, 72 h, read-out: Cytotoxicity. The method, then: (§1) The in vitro cytotoxicity of a selection of compounds were evaluated in a panel of cell lines using the standard MTT assay for a 72 hour incubation period (Table 2). Free payloads produced cytotoxicities in the nanomolar range.
(§2) Tumor cell lines were maintained in RPMI1640 medium supplemented with 10% heat-inactivated fetal bovine serum, 2 mM L-glutamine and 1 mM sodium pyruvate. 1800 cells per well were seeded in a volume of 180 μl in a 96-well flat bottom polystyrene plate. The cells were allowed to adhere overnight at 37° C. in a CO2 incubator. Ligands were initially formulated in DMSO, and stocks stored at −80° C. They were then further formulated at lox concentration in RPMI1640 medium. 20 ul of diluted samples were added into each treatment well. On each plate, blank wells with no cells, and untreated wells containing cells, were included. Plates were then cultured at 37° C. in a CO2 incubator for 72 hrs. Cytotoxicity was evaluated using a tetrazolium salt-based assay, the MTT assay. After 72 hours, the supernatant was removed from each well and 200 μl of a sterile filtered 500 μg/ml MTT solution in water added to each well. The plates were then incubated at 37° C. in a CO2 incubator for 4 hrs. The supernatant was then removed and the formazan crystals formed solubilized by adding 150 μl of DMSO to each well. The plate was then read on a plate reader at 540 nm, and percentage cell survival calculated as follows: ((mean absorbance treated wells at concentration x−mean absorbance blank wells)+(mean absorbance untreated wells at concentration x−mean absorbance blank wells))×100. Data were plotted as concentration in nM vs. % cell survival in Microsoft Excel, and IC50 values (concentration where cell survival is reduced by a half) were determined from the graph.
In general terms: Tetrazolium assays rely on reduction of a dye to a coloured formazan, in cell work by metabolically active cells.

The test system of another assay is REH (ALL). The assay can be described thus: In vitro cytotoxicity, MTT assay, REH. It counts as cell-based. As to conditions: 72 h, read-out: Cytotoxicity. The protocol:
as §1, §2

A further assay deals with DS3 DNA fragment. Kind of assay: DNA footprinting, DS3 DNA fragment. It counts as binding. The protocol:
(§3) The DNA sequence selectivity profile of the molecules was investigated using a modification of the previously established DNA footprinting assay. Following an overnight incubation of the ligand-DNA complexes, the mixture was mixed with strand separation buffer containing 10 mM EDTA, 10 mM NaOH, 0.1% bromophenol blue, 80% formamide and incubated at 100° C. for 3 min. The mixture was then immediately cooled on ice and run on an 8% denaturing gel.
(§4) The preparation of the DS3 DNA fragment (FIG. 5) and the “D” DNA fragment (FIG. 6) has been previously described. Briefly, the sequence which had been cloned into the BamHI site of pUC18 was obtained by cutting with HindIII and EcoRI. Radiolabelled DNA fragments were prepared by filling in the 3′-end of the HindIII site with [α-^32P]dATP using Klenow DNA polymerase (exo-).
The radiolabelled DNA fragment was separated from the remainder of the plasmid DNA on a 6% non-denaturing polyacrylamide gel. The gel (20 cm long, 0.3 mm thick) was run at 400 V in 1×TBE running buffer for about 1-2 h, until the bromophenol blue had run most of the way down the gel. The glass plates were separated and the position of the labelled DNA fragment was established by short (1 min) exposure to an X-ray film. The relevant band was then cut from the gel and the radiolabelled DNA eluted by adding 300 μL 10 mM Tris-HCl, pH 7.5 containing 0.1 mM EDTA and gently agitating overnight at room temperature. The eluted DNA was finally precipitated with ethanol and re-suspended in a suitable volume of 10 mM Tris-HCl, pH 7.5 containing 0.1 mM EDTA buffer so as to give at least 10 counts per second/μL on a hand-held Geiger counter. […]
(§5) Footprinting reactions were performed as previously described using the DNA fragments DS3, which contains tracts of AT/GC bases; and using the “D” DNA fragments which represents a random DNA sequence. […] After gel purification, the radiolabelled DNA was dissolved in 10 mM Tris-HCl pH 7.5 containing 0.1 mM EDTA, at a concentration of about 10 c.p.s per μL as determined on a hand held Geiger counter. […]

For the next assay, the system named is "D" DNA fragment. The assay can be described thus: DNA footprinting, random "D" DNA fragment. It counts as binding. As to conditions: random "D" DNA sequence. The method, then: as §3, §4
The radiolabelled DNA fragment was separated from the remainder of the plasmid DNA on a 6% non-denaturing polyacrylamide gel. […]
as §5

As for `COc1cc2c(cc1OCCCC(=O)Nc1cc(C(=O)Nc3ccc(-c4cc(C(=O)Nc5ccc(N)cc5)n(C)c4)cc3)n(C)c1)NC[C@@H]1CCCCN1C2=O` [Compound 16, (S)—N-(4-Aminophenyl)-4-(4-(4-(4-((2-methoxy-12-oxo-5,6,6a,7,8,9,10,12-octahydrobenzo[e]pyrido[1,2-a][1,4]diazepin-3-yl)oxy)butanamido)-1-methyl-1H-pyrrole-2-carboxamido)phenyl)-1-methyl-1H-pyrrole-2-carboxamide], the values for the pIC50 with A431 (Skin) and with REH (ALL) were 7.21 and 6.84, respectively. The “DNA binding pattern (footprint)” value with DS3 DNA fragment (DS3 DNA sequence) is “predominantly target AT rich regions”. Also, the “DNA-binding site sequence (X any base, W A or T)” value with DS3 DNA fragment (from DNA footprinting, fragment not stated) was “XXXXWWW”. In the assay on "D" DNA fragment, the “preferred binding sites (footprint)” value was “only three preferred sites were observed during this experiment, and all are primarily AT-rich”.

The record behind these values is patent US20210371413A1, “POLYCYCLIC AMIDES AS CYTOTOXIC AGENTS” (FEMTOGENIX LIMITED, priority 2018, published 2021).
